We go through 1 compound from patent publication US20240279710A1, “FLUORESCENT PROBES” (TOHOKU TECHNO ARCH CO., LTD., priority 2021, published 2024).

Experiment [1] deals with calpain. The experiment is described as follows: Combined use with calpain inhibitor in rat NMDA model (Compound 19 as probe). In kind it is in vivo. The procedure:
(§1) Carboxymethylcellulose sodium was dissolved in distilled water to prepare a 0.5% (w/v) CMC solution. An inhibitor-containing CMC solution was prepared by suspending SNJ-1945 in the 0.5% (w/v) CMC solution so that its concentration became 2.5% (w/v). Rats were each subjected to general anesthesia with isoflurane, and NMDA (10 mM, 2 μL) was administered into an eye of the rat. 2 Hours after the administration of NMDA, the inhibitor-containing CMC solution was intraperitoneally administered to the rat so that the dose of SNJ-1945 became 100 mg/kg body weight. 4 Hours after the administration of the inhibitor (6 hours after the administration of NMDA), the rat was anesthetized with isoflurane again, and Compound 19 (15 μM, 4 μL) was administered into the eye. Images of an ocular fundus were taken with F-10 20 minutes to 30 minutes after the administration of Compound 19. In a control group (N=8), the same operations as those in an SNJ-1945-administered group (N=8) except the following were performed: the 0.5% (w/v) CMC solution was administered instead of the inhibitor-containing CMC solution.
as §1, with “orally” for “intraperitoneally”, “(N=7),” for “(N=8),”
Carboxymethylcellulose sodium was dissolved in distilled water to prepare a 0.5% (w/v) CMC solution. An inhibitor-containing CMC solution was prepared by suspending SNJ-1945 in the 0.5% (w/v) CMC solution so that its concentration became 2.5% (w/v). The inhibitor-containing CMC solution was intraperitoneally administered to each of rats so that the dose of SNJ-1945 became 100 mg/kg body weight. 2 Hours after the intraperitoneal administration, the rat was subjected to general anesthesia with isoflurane, and NMDA (10 mM, 2 μL) was administered into an eye thereof. […]

In experiment [2] the test system is SH-SY5Y cells. The experiment is described as follows: Combined use with calpain inhibitor in live cell imaging. The class given is cell-based. As to conditions: inhibitor 10 μM, 5 μM Compound 19, SH-SY5Y cells; FIG. 30. The procedure:
Whether or not the improvement in enzymatic reactivity between the compound of the present invention and a calpain confirmed by the above-mentioned experiment remained the same even in a cell was verified. Calpain activity imaging in SH-SY5Y cells was performed on each of Compounds 16 and 19. Specifically, the SH-SY5Y cells (American Type Culture Collection, VA, USA) were cultured in a mixed medium of Dulbecco's modified eagle medium and Ham's F-12 medium (DMEM/F-12; Thermo Fisher Scientific, Inc.) (containing 10% fetal bovine serum (FBS; Thermo Fisher Scientific, Inc., MA, USA) and 100 U/mL penicillin-100 μg/mL streptomycin (PS; Thermo Fisher Scientific, Inc.)) under the conditions of 37° C. and 5% CO2-95% air. 6×10^4 to 8×10^4 Cells/well of the cells were seeded in a multiwell plate (μ-Plate 96 Well; ibidi, Grafelfing, Germany) coated with poly-D-lysine (Thermo Fisher Scientific, Inc.) and laminin (BD Biosciences, CA, USA), and were preincubated in a culture solution. Immediately after the removal of the culture solution in the wells, 200 μL of an assay solution (a culture solution containing a 5 μM probe) was added thereto, and the cells were incubated under the conditions of 37° C. and 5% CO2-95% air. 10 Minutes after that, a bright field image and a fluorescence image were taken with a confocal microscope (LSM 710, Carl Zeiss AG, Oberkochen, Germany). […]

In the case of `COCCOCCOC(=O)N[C@@H](CC(C)C)C(=O)N[C@@H](Cc1ccccc1)C(=O)C(=O)NC1CC1` [SNJ-1945], the “number of HMRG-positive nerve cells compared to control group” value is recorded as “significantly reduced” in experiment [1] (100 mg/kg intraperitoneally 2 hours after NMDA, Compound 19 (15 μM, 4 μL) 4 hours later, FIG. 32); “significantly reduced” in experiment [1] (100 mg/kg intraperitoneally 2 hours before NMDA, Compound 19 (15 μM, 4 μL) 6 hours after NMDA, FIG. 34); “significantly reduced” in experiment [1] (100 mg/kg orally 2 hours after NMDA, Compound 19 (15 μM, 4 μL) 4 hours later, FIG. 33). For the same compound, the “number of HMRG-positive nerve cells compared to group administered any other calpain inhibitor (C2I, MDL 28,170, PD-151746)” value in experiment [1] (orally as in Example 16, FIG. 35) is recorded as “significantly reduced”. For the same compound, the “intracellular fluorescence intensity (Compound 19 probe) with vs without inhibitor” value in experiment [2] is given as “attenuates”.
